The values below come from patent US20230365572A1, “HYDROXYLBENZYL AZABICYCLO[2.2.1]HEPTAN-1-ANE DRIVATIVES AND MEDICAL USES THEREOF” (ATROGI AB, priority 2020, published 2023).

Holding throughout (format): cell-based
Assay [1] deals with Intracellular cAMP levels. Put plainly: Measurement of intracellular cAMP levels in differentiated L6 cells (alpha screen cAMP kit). The conditions noted are these: Rattus norvegicus, L6, 0.25 h, read-out: Biological example 2: intracellular cAMP levels, activity compared to that of isoproterenol. Here is the method:
L6-myoblasts were grown in Dulbecco's Modified Eagle's Medium (DMEM) containing 4.5 g/l glucose supplemented with 10% fetal bovine serum, 2 mM L-Glutamine, 50 U/ml penicillin, 50 1.1g/ml streptomycin and 10 mM HEPES. Cells were plated at 1×10^5 cells per ml in 24-well plates. After reaching 90% confluence the cells were grown in medium containing 2% FBS for 7 days where upon cells differentiated into myotubes. Differentiated cells were serum-starved over night and stimulated with agonist, final concentration 1×10^−5 M, for 15 min in stimulation buffer (HBSS supplemented with 1% BSA, 5 mM HEPES and 1 mM IBMX, pH 7,4) The medium was then aspirated and to end the reaction 100 μL of 95% EtOH was added to each well of a 24-well plate and cells were kept in […] over night. The EtOH was let to evaporate and 5001 μof lysis buffer (1% BSA, 5 mM HEPES and 0.3% Tween-20, pH 7,4) was added to each well before put in −80° C. for 30 min and then kept in −20° C. Intracellular cAMP levels were detected using an alpha screen cAMP kit (6760635D from Perkin Elmer). The activity for each compound is compared to that of isoproterenol.
For orientation: cAMP levels reflect the balance of adenylyl cyclase and phosphodiesterase activity.

For assay [2], the system named is L6-myotubes. Put plainly: Glucose uptake in differentiated L6-myotubes (3H-2-deoxy-glucose). The conditions noted are these: read-out: Biological example 1: glucose uptake, activity compared to that of isoproterenol. The procedure: L6-myoblasts were grown in Dulbecco's Modified Eagle's Medium (DMEM) containing 4.5 g/l glucose supplemented with 10% fetal bovine serum, 2 mM L-Glutamine, 50 U/ml penicillin, 50 1.1g/ml streptomycin and 10 mM HEPES. Cells were plated at 1×10^5 cells per ml in 24-well plates. After reaching 90% confluence the cells were grown in medium containing 2% FBS for 7 days where upon cells differentiated into myotubes. Differentiated L6-myotubes were serum-starved over night in medium containing 0.5% fatty-acid free BSA and stimulated with agonist, final concentration 1×10^−5. After 1 h 40 min cells were washed with warm, glucose free medium or PBS and another portion of agonist was added to glucose free medium. After 20 min the cells were exposed to 50 nM ^3H-2-deoxy-glucose for another 10 min before washed in ice cold glucose free medium or PBS and lysed in 0.2 M NaOH for 1 h in 60° C.

The test system of assay [3] is L6-myotubes. Kind of assay: Glucose uptake in L6-myotubes in the presence of the β2-antagonist ICI-118,551. The conditions noted are these: differentiated L6-myotubes, ICI-118,551 1×10^−5 M, compound 1×10^−5 M. Here is the method:
L6-myoblasts were grown in Dulbecco's Modified Eagle's Medium (DMEM) containing 4.5 g/l glucose supplemented with 10% fetal bovine serum, 2 mM L-Glutamine, 50 U/ml penicillin, 50 1.1g/ml streptomycin and 10 mM HEPES. Cells were plated at 1×10^5 cells per ml in 24-well plates. After reaching 90% confluence the cells were grown in medium containing 2% FBS for 7 days where upon cells differentiated into myotubes. Differentiated L6-myotubes were serum-starved overnight in medium containing 0.5% fatty-acid free BSA and were incubated with the β2-adrenergic receptor antagonist ICI-118,551 at a final concentration of 1×10^−5 M for 30 min. The cells were stimulated with a compound of the invention, at a final concentration of 1×10^−5 M. After 1 h 40 min the cells were washed twice with warm, glucose free medium or PBS and additional portions of the compound of the invention and the antagonist were added. After 20 min the cells were exposed to 50 nM ^3H-2-deoxyglucose for 10 min before washed with ice cold glucose free medium or PBS three times and lysed with 0.2 M NaOH, 400 μL/well, for 1 h at 60° C. The cell lysate was mixed with 4 mL scintillation buffer (Emulsifier Safe, Perkin Elmer) and the radioactivity was detected in a β-counter (Tri-Carb 4810TR, Perkin Elmer). The activity for each compound is compared to that of isoproterenol.

Setting [4] is: differentiated cells, agonist final concentration 1×10^−5 M, 15 min.
[5] abbreviates: differentiated L6-myotubes, agonist final concentration 1×10^−5, 3H-2-deoxy-glucose uptake.

Structures can show the parent of a compound that is named as a salt. Where two headings read alike, the source gives them in different places.

Regarding `COCC12CCC([C@@H](O)c3cccc(F)c3)(CC1)N2` [Example 15, (S)-(3-Fluorophenyl)(4-(methoxymethyl)-7-azabicyclo[2.2.1]heptan-1-yl)methanol hydrochloride], the Emax at 10 µM in assay [1] was less than 25%; in assay [2] it was 50 to 75%.

Regarding `CC12CCC([C@@H](O)c3cccc(F)c3)(CC1)N2` [Example 2, (S)-(3-Fluorophenyl)(4-methyl-7-azabicyclo[2.2.1]heptan-1-yl)methanol hydrochloride], the Emax at 10 µM was less than 25% in assay [1] (setting [4]) and more than 75% in assay [2] (setting [5]). For the same molecule, in assay [3], the “Biological example 3: glucose uptake in the presence of the β2-antagonist ICI-118,551, activity compared to that of isoproterenol” value is reported as “− (if it less than 25% it is denoted with)”.

For the molecule `CC12CCC([C@H](O)c3ccccc3Cl)(CC1)N2` [Example 7, (R)-(2-Chlorophenyl)(4-methyl-7-azabicyclo[2.2.1]heptan-1-yl)methanol hydrochloride], the Emax at 10 µM in assay [1] (setting [4]) is less than 25%; in assay [2] (setting [5]), more than 75%.

`CC12CCC([C@H](O)c3ccccc3F)(CC1)N2` [Example 3, (R)-(2-Fluorophenyl)(4-methyl-7-azabicyclo[2.2.1]heptan-1-yl)methanol hydrochloride]: the Emax at 10 µM in assay [1] (setting [4]) is less than 25%; in assay [2] (setting [5]) it was 50 to 75%.

On to `CC12CCC([C@@H](O)c3ccncc3F)(CC1)N2` [Example 12, (S)-(3-Fluoropyridin-4-yl)(4-methyl-7-azabicydo[2.2.1]heptan-1-yl)-methanol], for which the Emax at 10 µM in assay [1] (setting [4]) and in assay [2] (setting [5]) was less than 25% in each case.

Turning to `CC12CCC([C@H](O)c3ccncc3F)(CC1)N2` [Example 11, (R)-(3-Fluoropyridin-4-yl)(4-methyl-7-azabicyclo[2.2.1]heptan-1-yl)-methanol], the Emax at 10 µM in assay [1] (setting [4]) and in assay [2] (setting [5]) was less than 25% throughout.

`COCC12CCC([C@H](O)c3cccc(F)c3)(CC1)N2` [Example 16, (R)-(3-Fluorophenyl)(4-(methoxymethyl)-7-azabicyclo[2.2.1]heptan-1-yl)methanol hydrochloride]: the Emax at 10 µM was less than 25% in assay [1] and more than 75% in assay [2]. In addition, the “Biological example 3: glucose uptake in the presence of the β2-antagonist ICI-118,551, activity compared to that of isoproterenol” value in assay [3] is “− (if it less than 25% it is denoted with)”.

Regarding `CC12CCC([C@@H](O)c3cncc(F)c3)(CC1)N2` [Example 10, (S)-(3-fluoropyridin-4-yl)(4-methyl-7-azabicydo[2.2.1]heptan-1-yl)-methanol], the values for the Emax at 10 µM in assay [1] (setting [4]) and in assay [2] (setting [5]) were less than 25% and 50 to 75%, respectively.

For the molecule `CC12CCC([C@@H](O)c3cccc(Cl)c3)(CC1)N2` [Example 6, (S)-(3-Chlorophenyl)(4-methyl-7-azabicyclo[2.2.1]heptan-1-yl)methanol hydrochloride], the Emax at 10 µM in assay [1] (setting [4]) was less than 25%; in assay [2] (setting [5]), 25 to 50%.

In the case of `CC12CCC([C@@H](O)c3ccccc3F)(CC1)N2` [Example 4, (S)-(2-Fluorophenyl)(4-methyl-7-azabicyclo[2.2.1]heptan-1-yl)methanol hydrochloride], the Emax at 10 µM in assay [1] (setting [4]) is less than 25%; in assay [2] (setting [5]), 25 to 50%.

Regarding `O[C@H](c1cccc(F)c1)C12CCC(COc3ccc(Cl)cc3)(CC1)N2` [Example 18, (R)-(4-((4-Chlorophenoxy)methyl)-7-azabicyclo[2.2.1]heptan-1-yl) (3-fluorophenyl)methanol], the Emax at 10 µM was less than 25% in assay [1] (setting [4]) and more than 75% in assay [2] (setting [5]).

Consider `CCCC12CCC([C@@H](O)c3cccc(F)c3)(CC1)N2` [Example 14, (S)-(3-Fluorophenyl)(4-propyl-7-azabicyclo[2.2.1]heptan-1-yl)methanol hydrochloride], for which the Emax at 10 µM in assay [1] (setting [4]) and in assay [2] (setting [5]) was less than 25% each time.

For `CC12CCC([C@@H](O)c3ccccc3Cl)(CC1)N2` [Example 8, (5)-(2-Chlorophenyl)(4-methyl-7-azabicyclo[2.2.1]heptan-1-yl)methanol hydrochloride], the Emax at 10 µM was less than 25% in assay [1] (setting [4]) and 25 to 50% in assay [2] (setting [5]).

Regarding `CC12CCC([C@H](O)c3cccc(F)c3)(CC1)N2` [Example 1, (R)-(3-Fluorophenyl)(4-methyl-7-azabicyclo[2.2.1]heptan-1-yl)methanol hydrochloride], the Emax at 10 µM in assay [1] (setting [4]) is less than 25%; in assay [2] (setting [5]), more than 75%. Moreover, in assay [3], the “Biological example 3: glucose uptake in the presence of the β2-antagonist ICI-118,551, activity compared to that of isoproterenol” value was “− (if it less than 25% it is denoted with)”.

Consider `O[C@@H](c1cccc(F)c1)C12CCC(COc3ccc(Cl)cc3)(CC1)N2` [Example 17, (S)-(4-((4-Chlorophenoxy)methyl)-7-azabicyclo[2.2.1]heptan-1-yl)(3-fluorophenyl)methanol], for which the Emax at 10 µM in assay [1] (setting [4]) is less than 25%; in assay [2] (setting [5]) it was 50 to 75%.

Regarding `CCCC12CCC([C@H](O)c3cccc(F)c3)(CC1)N2` [Example 13, (R)-(3-Fluorophenyl)(4-propyl-7-azabicyclo[2.2.1]heptan-1-yl)methanol hydrochloride], the figures for the Emax at 10 µM in assay [1] (setting [4]) and in assay [2] (setting [5]) were 25 to 50% and 50 to 75%, respectively.

`CC12CCC([C@H](O)c3cccc(Cl)c3)(CC1)N2` [Example 5, (R)-(3-Chlorophenyl)(4-methyl-7-azabicyclo[2.2.1]heptan-1-yl)methanol hydrochloride]: the Emax at 10 µM is less than 25% in assay [1] (setting [4]) and more than 75% in assay [2] (setting [5]).

For `CC12CCC([C@H](O)c3cncc(F)c3)(CC1)N2` [Example 9, (R)-(3-fluoropyridin-4-yl)(4-methyl-7-azabicydo[2.2.1]heptan-1-yl)-methanol], the Emax at 10 µM was less than 25% in assay [1] (setting [4]) and more than 75% in assay [2] (setting [5]).
